Experimental data published in US5420287A, “1,2 diarylcyclopentenyl compounds for the treatment of inflammation” (G. D. Searle & Co., priority 1994, dated 1995).

Tested on: carrageenan foot edema
Assay: Rat Carrageenan Foot Pad Edema Test
Format: in vivo, Male Sprague-Dawley rats
Details: @ 10 mg/kg body weight, oral, 3 h after carrageenan injection, read-out: RAT PAW EDEMA % Inhibition
Procedure: One hour later a subplantar injection of 0.1 mL of 1% solution of carrageenan/sterile 0.9% saline was administered and the volume of the injected foot was measured with a displacement plethysmometer connected to a pressure transducer with a digital indicator.

## CS(=O)(=O)c1ccc(C2=C(c3ccc(F)cc3)CCC2)cc1 [Example 1, 1-[2-(4-fluorophenyl)cyclopenten-1-yl]-4-(methylsulfonyl)benzene]
  inhibition in vivo at 10 mg/kg: 33%
